Experiments:
Experiment in all cases: relative viability (nuclei count vs DMSO), 5 days (fraction); higher = more cells survive
LCLC-97TM1 = test system: LCLC-97TM1
In short: (§1)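 Relative viability is defined as nuclei in treated wells over nuclei in vehicle wells. Duplicate plates were run and medians reported. Lung cancer cell lines in 1536-well plates were dosed by pin tool one day after seeding, with one drug or with a fixed anchor-drug dose plus five library-drug doses (not always all listed) in √10 steps, and nuclei were counted after 5 days.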

NCI-H650 = test system: NCI-H650
In short: as §1

H3255 = test system: H3255
In short: as §1

NCI-H520 = test system: NCI-H520
In short: as §1

BEN = test system: BEN
In short: as §1

NCI-H441 = test system: NCI-H441
In short: as §1

NCI-H2023 = test system: NCI-H2023
In short: as §1

NCI-H596 = test system: NCI-H596
In short: as §1

NCI-H460 = test system: NCI-H460
In short: as §1

NCI-H1944 = test system: NCI-H1944
In short: as §1

PC-3 [JPC-3] = test system: PC-3 [JPC-3]
In short: as §1

NCI-H661 = test system: NCI-H661
In short: as §1

NCI-H727 = test system: NCI-H727
In short: as §1

NCI-H1651 = test system: NCI-H1651
In short: as §1

201T = test system: 201T
In short: as §1

A-427 = test system: A-427
In short: as §1

NCI-H2087 = test system: NCI-H2087
In short: as §1

CAL-12T = test system: CAL-12T
In short: as §1

NCI-H1915 = test system: NCI-H1915
In short: as §1

ABC-1 = test system: ABC-1
In short: as §1

LC-2-ad = test system: LC-2-ad
In short: as §1

Structure (SMILES): O=c1cc(N2CCOCC2)oc2c(-c3cccc4c3sc3ccccc34)cccc12 + C[C@]1(O)C[C@@H](c2nc(-c3ccc4ccc(-c5ccccc5)nc4c3)c3c(N)nccn32)C1 [Linsitinib] (partner 1 µM)
- relative viability (LCLC-97TM1; first compound 0.01 µM): 0.217
- relative viability (LCLC-97TM1; first compound 0.03162 µM): 0.203
- relative viability (LCLC-97TM1; first compound 0.3162 µM): 0.198
- relative viability (LCLC-97TM1; first compound 1 µM): 0.18
- relative viability (NCI-H650; first compound 0.01 µM): 0.794
- relative viability (NCI-H650; first compound 0.03162 µM): 1.03
- relative viability (NCI-H650; first compound 0.3162 µM): 1.14
- relative viability (NCI-H650; first compound 1 µM): 0.679
- relative viability (H3255; first compound 0.01 µM): 1
- relative viability (H3255; first compound 0.03162 µM): 0.988
- relative viability (H3255; first compound 0.1 µM): 1.14
- relative viability (H3255; first compound 0.3162 µM): 0.95
- relative viability (H3255; first compound 1 µM): 1.09
- relative viability (NCI-H520; first compound 0.01 µM): 1.02
- relative viability (NCI-H520; first compound 0.03162 µM): 1.01
- relative viability (NCI-H520; first compound 0.1 µM): 1.22
- relative viability (NCI-H520; first compound 0.3162 µM): 0.923
- relative viability (NCI-H520; first compound 1 µM): 0.876
- relative viability (BEN; first compound 0.01 µM): 0.887
- relative viability (BEN; first compound 0.03162 µM): 0.916
- relative viability (BEN; first compound 0.1 µM): 0.978
- relative viability (BEN; first compound 0.3162 µM): 1.02
- relative viability (BEN; first compound 1 µM): 0.948
- relative viability (NCI-H441; first compound 0.01 µM): 0.53
- relative viability (NCI-H441; first compound 0.03162 µM): 0.518
- relative viability (NCI-H441; first compound 0.1 µM): 0.582
- relative viability (NCI-H441; first compound 0.3162 µM): 0.555
- relative viability (NCI-H441; first compound 1 µM): 0.594
- relative viability (NCI-H2023; first compound 0.01 µM): 0.735
- relative viability (NCI-H2023; first compound 0.03162 µM): 0.66
- relative viability (NCI-H2023; first compound 0.1 µM): 0.603
- relative viability (NCI-H2023; first compound 0.3162 µM): 0.564
- relative viability (NCI-H2023; first compound 1 µM): 0.557
- relative viability (NCI-H596; first compound 0.01 µM): 1.14
- relative viability (NCI-H596; first compound 0.03162 µM): 1.02
- relative viability (NCI-H596; first compound 0.1 µM): 1.19
- relative viability (NCI-H596; first compound 0.3162 µM): 0.968
- relative viability (NCI-H596; first compound 1 µM): 0.921
- relative viability (NCI-H460; first compound 0.01 µM): 0.764
- relative viability (NCI-H460; first compound 0.03162 µM): 0.708
- relative viability (NCI-H460; first compound 0.1 µM): 0.739
- relative viability (NCI-H460; first compound 0.3162 µM): 0.822
- relative viability (NCI-H460; first compound 1 µM): 0.78
- relative viability (NCI-H1944; first compound 0.01 µM): 1.16
- relative viability (NCI-H1944; first compound 0.03162 µM): 1.19
- relative viability (NCI-H1944; first compound 0.1 µM): 1.19
- relative viability (NCI-H1944; first compound 0.3162 µM): 1.33
- relative viability (NCI-H1944; first compound 1 µM): 1.16
- relative viability (PC-3 [JPC-3]; first compound 0.01 µM): 0.967
- relative viability (PC-3 [JPC-3]; first compound 0.03162 µM): 0.865
- relative viability (PC-3 [JPC-3]; first compound 0.1 µM): 0.943
- relative viability (PC-3 [JPC-3]; first compound 0.3162 µM): 0.916
- relative viability (PC-3 [JPC-3]; first compound 1 µM): 0.913
- relative viability (NCI-H661; first compound 0.01 µM): 0.652
- relative viability (NCI-H661; first compound 0.03162 µM): 0.579
- relative viability (NCI-H661; first compound 0.1 µM): 0.571
- relative viability (NCI-H661; first compound 0.3162 µM): 0.649
- relative viability (NCI-H661; first compound 1 µM): 0.614
- relative viability (NCI-H727; first compound 0.01 µM): 0.29
- relative viability (NCI-H727; first compound 0.03162 µM): 0.238
- relative viability (NCI-H727; first compound 0.1 µM): 0.243
- relative viability (NCI-H727; first compound 0.3162 µM): 0.227
- relative viability (NCI-H727; first compound 1 µM): 0.283
- relative viability (NCI-H1651; first compound 0.01 µM): 1.1
- relative viability (NCI-H1651; first compound 0.03162 µM): 1.07
- relative viability (NCI-H1651; first compound 0.1 µM): 1.02
- relative viability (NCI-H1651; first compound 0.3162 µM): 1.05
- relative viability (NCI-H1651; first compound 1 µM): 0.912
- relative viability (201T; first compound 0.01 µM): 1.04
- relative viability (201T; first compound 0.03162 µM): 1.03
- relative viability (201T; first compound 0.1 µM): 1.03
- relative viability (201T; first compound 0.3162 µM): 1.01
- relative viability (201T; first compound 1 µM): 1.05
- relative viability (A-427; first compound 0.01 µM): 1.13
- relative viability (A-427; first compound 0.03162 µM): 1.12
- relative viability (A-427; first compound 0.1 µM): 1.23
- relative viability (A-427; first compound 0.3162 µM): 1.12
- relative viability (A-427; first compound 1 µM): 1.11
- relative viability (NCI-H2087; first compound 0.01 µM): 1.04
- relative viability (NCI-H2087; first compound 0.03162 µM): 1.12
- relative viability (NCI-H2087; first compound 0.1 µM): 0.899
- relative viability (NCI-H2087; first compound 0.3162 µM): 0.899
- relative viability (NCI-H2087; first compound 1 µM): 0.985
- relative viability (CAL-12T; first compound 0.01 µM): 0.851
- relative viability (CAL-12T; first compound 0.03162 µM): 0.809
- relative viability (CAL-12T; first compound 0.1 µM): 0.842
- relative viability (CAL-12T; first compound 0.3162 µM): 0.873
- relative viability (CAL-12T; first compound 1 µM): 0.879
- relative viability (NCI-H1915; first compound 0.01 µM): 1.04
- relative viability (NCI-H1915; first compound 0.03162 µM): 1.15
- relative viability (NCI-H1915; first compound 0.1 µM): 0.636
- relative viability (NCI-H1915; first compound 0.3162 µM): 1.1
- relative viability (NCI-H1915; first compound 1 µM): 1.08
- relative viability (ABC-1; first compound 0.01 µM): 0.89
- relative viability (ABC-1; first compound 0.03162 µM): 0.717
- relative viability (ABC-1; first compound 0.1 µM): 0.745
- relative viability (ABC-1; first compound 0.3162 µM): 0.618
- relative viability (ABC-1; first compound 1 µM): 0.586
- relative viability (LC-2-ad; first compound 0.01 µM): 0.975
- relative viability (LC-2-ad; first compound 0.1 µM): 0.801
- relative viability (LC-2-ad; first compound 0.3162 µM): 0.714
- relative viability (LC-2-ad; first compound 1 µM): 0.781

— the supplement of paper PMC10307832
